Reference: patent US20230167120A1, “ARYL-FUSED ISOSELENAZOLE COMPOUND CONTAINING TETRAZINE SUBSTITUENT, SYNTHESIS METHOD THEREFOR, AND USE THEREOF” (KEAISE MEDICINE WUHAN CORP., priority 2020, published 2023)

What was measured:
[1] = biological target: T1, thioredoxin reductase (TrxR) (Homo sapiens, UniProt Q16881); settings: read-out: Inhibitory activity against thioredoxin reductase (IC50) TrxR; cellular total protein, NADPH, DTNB, 405 nm
T1 sequence (Q16881 1-649): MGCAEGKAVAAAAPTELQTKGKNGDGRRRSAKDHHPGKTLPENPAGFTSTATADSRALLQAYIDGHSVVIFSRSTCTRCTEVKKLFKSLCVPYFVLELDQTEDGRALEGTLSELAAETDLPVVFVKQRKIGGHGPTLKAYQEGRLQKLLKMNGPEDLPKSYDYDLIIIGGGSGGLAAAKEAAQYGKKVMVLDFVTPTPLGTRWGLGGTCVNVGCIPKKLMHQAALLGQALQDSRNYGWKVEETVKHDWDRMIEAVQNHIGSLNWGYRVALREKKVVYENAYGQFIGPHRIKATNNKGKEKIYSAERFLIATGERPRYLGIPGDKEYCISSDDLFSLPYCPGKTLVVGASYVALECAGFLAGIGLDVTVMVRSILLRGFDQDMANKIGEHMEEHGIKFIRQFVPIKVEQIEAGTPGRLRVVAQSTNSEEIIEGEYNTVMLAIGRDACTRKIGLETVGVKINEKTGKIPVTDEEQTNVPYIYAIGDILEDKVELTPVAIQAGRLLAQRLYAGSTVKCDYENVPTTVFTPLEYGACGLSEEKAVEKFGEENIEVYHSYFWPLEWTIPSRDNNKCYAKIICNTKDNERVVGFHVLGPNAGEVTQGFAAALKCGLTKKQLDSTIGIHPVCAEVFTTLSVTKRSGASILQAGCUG
Method: The cellular total protein (i.e. thioredoxin reductase) was extracted and the concentration was determined. 30 μg of protein sample was added to a 96-well plate (3 replicate wells per concentration), and the volume was made up to 80 μL with 0.1 M sodium phosphate buffer. The protein samples were incubated in an oven at 37° C. for 30 min.
The absorbance was immediately measured at 405 nm using a microplate reader (FlexStation 3, Molecular Devices). Shaking was performed for 10 s before the first reading, and determination was performed once every 15 s, 30 times in total. The maximum reaction rate was taken as an enzymatic activity index. The experiment was independently repeated three times.

[2] = test system: U251MG human glioma cells; assay: In-vitro anti-cancer activity screening, SRB method, U251MG; format: cell-based; settings: U-251
Method: (§1) Referring to the method of example 9, two tumor cell lines, U251MG and U251TR human glioma cells, were selected, and temozolomide and the compounds of the present disclosure were subjected to in-vitro anti-cancer activity screening using the SRB method.

[3] = test system: human glioma cells (U87); assay: In-vitro growth inhibition, MTT method, U87; format: cell-based; settings: Glioma cell, 48 h
Method: (§2) The in-vitro growth inhibitory activity of compounds 1 to 8 of the present disclosure against human glioma cells (U87 and LN229), human hepatoma cells (SMMC-7721) and human pancreatic carcinoma cells (Panc1) was studied adopting the MTT method.
U87, LN229, SMMC-7721 and Panc1 cells growing at log phase were separately inoculated into a 96-well plate at a density of 5×10^4 cells/mL, 180 μL/well. […] After 48 h of action, a 5 mg/mL MTT solution (20 μL/well) was added. After the cells were incubated in a CO2 incubator for 3 to 4 h, the supernatant was carefully discarded. After the residual liquid was air-dried, acidified isopropanol (50 μL of concentrated hydrochloric acid dissolved in 500 mL of isopropanol) was added at […], and the plate was shaken on a shaker for 30 min. After the crystals were completely dissolved, absorbance OD values were measured by a microplate reader at 570 nm.
(§3) Cell viability %=(drug-treated cell OD−blank group OD)/(control cell OD−blank group OD)×100
(§4) Cell killing rate %=1−cell viability %

[4] = test system: human glioma cell U87; assay: Pharmacodynamic study in human glioma cell U87 subcutaneous model; format: in vivo, Balb/c nude mice; settings: compounds 20 mg/Kg, q.d.×14 days
From the text: The route of administration was intragastric administration ([…]., q.d.×14 days).

[5] = test system: human glioma cell U87; assay: Tumor volume inhibition rate, i.v. dosing; format: in vivo, Balb/c nude mice; settings: Mus musculus, iv, TMZ 10 mg·kg^−1, i.v.
Method: In addition, low-dosage 0409 (20 mg·kg^−1, i.v.) and TMZ (10 mg·kg^−1, i.v.) were synchronously used for an assay to determine the volume tumor inhibition rate.

[6] = test system: human glioma cell U87; assay: In-vivo antitumor activity, U87 tumor-bearing nude mice, i.g. dosing; set-up: species or system Balb/c nude mice; settings: q.d., end of the experiment; for Tumor volume: 11 days
From the text: The tumor emergence rate was 100%.
The solvent was freshly prepared when needed each day.

[7] = test system: U251TR human glioma cells; assay: In-vitro anti-cancer activity screening, SRB method, U251TR; format: cell-based; settings: Glioma cell, drug-resistant strain
Method: as §1

[8] = test system: human glioma cells (LN229); assay: In-vitro growth inhibition, MTT method, LN229; format: cell-based; settings: LN-229, 48 h
Method: as §2
(§5) U87, LN229, SMMC-7721 and Panc1 cells growing at log phase were separately inoculated into a 96-well plate at a density of 5×10^4 cells/mL, 180 μL/well. After the cells were attached to the wall, 20 μL of a drug liquid was added to each well, so that the final concentrations of the drug were 0 μM, 5 μM, 10 μM, 20 μM and 50 μM. After 48 h of action, a 5 mg/mL MTT solution (20 μL/well) was added. After the cells were incubated in a CO2 incubator for 3 to 4 h, the supernatant was carefully discarded. After the residual liquid was air-dried, acidified isopropanol (50 μL of concentrated hydrochloric acid dissolved in 500 mL of isopropanol) was added at […], and the plate was shaken on a shaker for 30 min. After the crystals were completely dissolved, absorbance OD values were measured by a microplate reader at 570 nm.
as §3, §4

[9] = test system: human pancreatic carcinoma cells (Panc1); assay: In-vitro growth inhibition, MTT method, Panc1; format: cell-based; settings: PANC-1, 48 h
Method: as §2, §5, §3, §4

[10] = test system: human hepatoma cells (SMMC-7721); assay: In-vitro growth inhibition, MTT method, SMMC-7721; format: cell-based; settings: 48 h
Method: as §2, §5, §3, §4

[11] = 240 h, Day 10, 20 mg·kg^−1, i.v.
[12] = 264 h, Day 11, 20 mg·kg^−1, i.v.
[13] = 288 h, Day 12, 20 mg·kg^−1, i.v.
[14] = 312 h, Day 13, 20 mg·kg^−1, i.v.
[15] = 336 h, Day 14, 20 mg·kg^−1, i.v.
[16] = 360 h, Day 15, 20 mg·kg^−1, i.v.
[17] = 384 h, Day 16, 20 mg·kg^−1, i.v.
[18] = 408 h, Day 17, 20 mg·kg^−1, i.v.
[19] = 432 h, Day 18, 20 mg·kg^−1, i.v.
[20] = 0409 high-dose group 90 mg·kg^−1, i.g.
[21] = 0409 low-dose group 45 mg·kg^−1, i.g.

| Compound | IC50 [2] [µM] | IC50 [3] [µM] | Tumor inhibition rate ([4]; Day 1) [%] | Tumor inhibition rate ([4]; Day 4) [%] | Tumor inhibition rate ([4]; Day 7) [%] | Tumor inhibition rate ([4]; Day 10) [%] | Tumor inhibition rate ([4]; Day 14 (end of the experiment)) [%] | inhibition in vivo at 20 mg/kg [5, 11] [%] | inhibition in vivo at 20 mg/kg [5, 12] [%] | inhibition in vivo at 20 mg/kg [5, 13] [%] | inhibition in vivo at 20 mg/kg [5, 14] [%] | inhibition in vivo at 20 mg/kg [5, 15] [%] | inhibition in vivo at 20 mg/kg [5, 16] [%] | inhibition in vivo at 20 mg/kg [5, 17] [%] | inhibition in vivo at 20 mg/kg [5, 18] [%] | inhibition in vivo at 20 mg/kg [5, 19] [%] | IC50 [7] [µM] | IC50 [8] [µM] | IC50 [9] [µM] | IC50 [10] [µM] | other results |
| --- | --- | --- | --- | --- | --- | --- | --- | --- | --- | --- | --- | --- | --- | --- | --- | --- | --- | --- | --- | --- | --- |
| O=c1c2ccccc2[se]n1CCCCn1[se]c2ccccc2c1=O [BS, Butaselen] |  |  |  |  |  |  |  |  |  |  |  |  |  |  |  |  |  |  |  |  | IC50 [1]: 1.14 ± 0.17 µM |
| Cn1nnc2c(C(=O)NCCn3[se]c4ccccc4c3=O)ncn2c1=O [Compound 1, 3,4-dihydro-3-methyl-4-oxo-N-(3(2H)-oxo-1,2-benzisoselenazol-2-yl)-ethyl-imidazo[5,1-d]-1,2,3,5-tetrazine-8-carboxamide] | 48.9 ± 9.33 | 21 ± 3.07 | 5.86 | 58.78 | 78.57 | 74.77 | 81.42 | 74.8 | 73.8 | 69.8 | 79.8 | 81.4 | 80.5 | 78.5 | 82.3 | 81.7 | 51.9 ± 21.9 | 14.4 ± 2.24 | 17.8 ± 3.44 | 12 ± 1.57 | Tumor volume [6, 20]: 90.00±32.64 mm^3; Tumor proliferation inhibition rate [6, 20]: 83.97%; Tumor weight [6, 20]: 0.12 ± 0.04 g; Tumor volume [6, 21]: 96.70±24.08 mm^3; Tumor proliferation inhibition rate [6, 21]: 82.78%; Tumor weight [6, 21]: 0.20 ± 0.10 g |
| Cc1ccc2c(=O)n(CCNC(=O)c3ncn4c(=O)n(C)nnc34)[se]c2c1 [Compound 8, 3,4-dihydro-3-methyl-4-oxo-N-(3(2H)-oxo-6-methyl-1,2-benzisoselenazol-2-yl)-ethyl-imidazo[5,1-d]-1,2,3,5-tetrazine-8-carboxamide] | 9.13 ± 1.52 | 20.4 ± 3.13 | −0.20 | 58.48 | 83.03 | 80.92 | 82.68 | 86.5 | 86.2 | 87.2 | 88.2 | 92.5 | 87.7 | 87 | 88.5 | 89.1 | 16.2 ± 1.67 | 13.7 ± 2.52 | 8.65 ± 3.52 | 3.35 ± 2.13 |  |
